Read-outs that look alike come from different tables or passages of the source.
How the values were obtained:
NCI-H1703 cells = assay: GLS Cell Proliferation Assay (NCI-H1703 cell proliferation); assay type: cell-based
Source text: (§1) The following assays were used to measure the effects of the compounds described herein: a) GLS Enzyme Potency Assay; b) GLS Cell Potency Assay; c) GLS Cell Proliferation Assay. During the description of the assays, generally: • i. The following abbreviations have been used: CO2=Carbon dioxide; DMEM=Dulbecco's Modified Eagle Medium; DMSO=Dimethyl sulphoxide; EDTA=Ethylenediaminetetraacetic acid; EGTA=Ethylene glycol tetraacetic acid; FCS=Foetal calf serum; h=Hour(s); NBS=Non-binding surface; SDS=Sodium dodecyl sulphate; TRIS=Tris(Hydroxymethyl)aminomethane. • ii. IC50 values were calculated using a smart fitting model in Genedata.
Assay c): GLS Cell Proliferation Assay
The ability of compounds to inhibit cell growth was measured using a 384 well plate NCI-H1703 cell proliferation assay. NCI-H1703 cells were grown in phenol red free RPMI1640, 10% FCS and 2 mM glutamine and seeded at a density of 750 cells per well in 40 μl of growth medium into clear-bottom 384 well assay plates (Corning product code 3712) and incubated for 24 h at 37° C., 5% CO2. Test compounds were prepared by dilution in 100% DMSO to give the correct dose range for 12 point concentration response and an appropriate volume (5-120 nl) dispensed directly into the assay plates containing plated cells. DMSO concentration was maintained at 0.3% by back filling with DMSO solution. Plates were incubated for 5 days at 37° C., 5% CO2, Sytox Green and Saponin added to final concentration of 2 μM and 0.25% respectively and incubated for 6 h prior to analysis. Plates were read on an Acumen eX3 (TTP Labtech) using 488 nm excitation and FITC filter set (500-530 nm) for emission. IC50 values were calculated by curve fitting to max inhibition of day zero growth using GeneData software analysis.

GLS1 = GLS1 (Homo sapiens (Human), UniProt O94925); assay: GLS Enzyme Potency Assay (Glutamate Oxidase/AmplexRed coupled assay); assay type: biochemical
Sequence of GLS1 (O94925 63-669): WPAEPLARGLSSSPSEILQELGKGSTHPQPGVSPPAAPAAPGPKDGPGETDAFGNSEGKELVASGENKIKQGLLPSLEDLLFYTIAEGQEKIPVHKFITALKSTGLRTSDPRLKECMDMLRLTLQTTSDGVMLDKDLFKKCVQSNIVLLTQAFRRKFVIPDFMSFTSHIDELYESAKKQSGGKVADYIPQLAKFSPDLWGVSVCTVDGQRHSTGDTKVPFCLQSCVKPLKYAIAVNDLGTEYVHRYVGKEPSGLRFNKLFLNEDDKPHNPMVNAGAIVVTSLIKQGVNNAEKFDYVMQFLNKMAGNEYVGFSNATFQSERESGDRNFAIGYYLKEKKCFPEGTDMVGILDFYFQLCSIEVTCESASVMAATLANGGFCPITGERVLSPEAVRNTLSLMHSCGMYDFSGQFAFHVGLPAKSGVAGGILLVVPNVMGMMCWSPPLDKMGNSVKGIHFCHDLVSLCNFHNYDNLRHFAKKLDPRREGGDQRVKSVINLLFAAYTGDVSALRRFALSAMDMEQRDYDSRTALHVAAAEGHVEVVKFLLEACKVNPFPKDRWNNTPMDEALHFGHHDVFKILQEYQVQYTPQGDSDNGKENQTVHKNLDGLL
Source text: as §1
Assay a): GLS Enzyme Potency Assay
A Glutamate Oxidase/AmplexRed coupled assay was used to measure the ability of compounds to bind to and inhibit the activity of GLS1 in vitro. […] GLS1 was diluted to 2×working concentration and incubated at room temperature to allow the tetrameric/dimeric forms to reach steady state. Assay measurements were performed in buffer comprising 50 mM TRIS pH 7.8, 100 mM NaPO4, pH 7.8, 0.001% v/v Tween20. […] DMSO concentration was maintained at 2% by back filling with DMSO solution. […] 3 μL of 100 mM glutamine diluted in assay buffer was then added and the reaction incubated at room temperature for 60 minutes. […] An artefact version of the assay where the 6His tagged GLS protein and glutamine were replaced with assay buffer was also used to rule out non specific effects on the assay components.

[1] = biological target: cellular GLS activity in PC3 cells (Homo sapiens (Human), UniProt O94925); assay: GLS Cell Potency Assay (PC3 coupled assay measuring cellular glutamate depletion); assay type: cell-based; details: PC3 cells, 6 h incubation, cellular glutamate depletion; read-out: Assay b) GLS cell MOA Mean IC50
Sequence of cellular GLS activity in PC3 cells (O94925 55-669): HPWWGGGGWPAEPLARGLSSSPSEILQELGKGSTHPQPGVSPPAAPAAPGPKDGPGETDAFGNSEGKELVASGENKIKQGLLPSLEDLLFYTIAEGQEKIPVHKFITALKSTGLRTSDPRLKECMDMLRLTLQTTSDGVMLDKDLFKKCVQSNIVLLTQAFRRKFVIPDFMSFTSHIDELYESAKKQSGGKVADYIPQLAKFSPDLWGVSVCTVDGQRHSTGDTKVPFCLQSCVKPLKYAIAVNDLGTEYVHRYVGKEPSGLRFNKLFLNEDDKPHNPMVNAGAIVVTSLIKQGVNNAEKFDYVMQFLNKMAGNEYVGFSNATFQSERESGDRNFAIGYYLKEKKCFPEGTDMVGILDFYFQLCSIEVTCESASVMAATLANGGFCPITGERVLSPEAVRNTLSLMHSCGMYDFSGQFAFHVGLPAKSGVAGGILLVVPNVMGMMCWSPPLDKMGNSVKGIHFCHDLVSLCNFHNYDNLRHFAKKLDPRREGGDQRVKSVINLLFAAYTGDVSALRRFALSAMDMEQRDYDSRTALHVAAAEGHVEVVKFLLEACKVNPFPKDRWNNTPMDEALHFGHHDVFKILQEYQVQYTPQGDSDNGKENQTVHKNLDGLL
Source text: as §1
Assay b): GLS Cell Potency Assay
Compounds were assessed for their potential to inhibit cellular GLS activity by use of a PC3 coupled assay measuring cellular glutamate depletion. […] DMSO concentration was maintained at 0.3% by back filling with DMSO solution. PC3 cells were grown in phenol free DMEM, 10% dialyzed FCS, 2 mM glutamine and following dispersal by trypsinisation were plated at 5.6×10^3 cells per well in 40 μl of growth medium directly into the 384 well assay plates containing dispensed compound. After incubation for 6 h at 37° C., 5% CO2 growth media was aspirated and cells lysed in 15 μl of buffer containing 10 mM TRIS pH7.4, 100 mM NaCl, 1 mM EDTA, 1 mM EGTA, 1 mM NaF, 20 mM Na4P2O7, 2 mM Na3VO4, 1% Triton X-100, 10% glycerol, 0.1% SDS and 0.5% deoxycholate. 4 μl Of cell lysate was then transferred to a 384 well NBS plate (Corning product code 3575) and 35 μl of […] Amplex Red, 0.1375 U/mL Horseradish Peroxidase, 0.044 U/mL glutamate oxidase, 100 mM TRIS pH7.5 was added.

[2] = Homo sapiens, 120 h; NCI-H1703 cells, 5 days incubation, Sytox Green; read-out: Assay c) Prolif Mean IC50
[3] = Homo sapiens, NCI-H1703, 120 h, NCI-H1703 cells, 5 days incubation, Sytox Green; read-out: Assay c) Prolif Mean IC50
[4] = recombinant 6His tagged GLS protein (amino acids 63-669), 60 minutes reaction with glutamine

SMILES | IC50 (NCI-H1703 cells; [2]) [nM] | IC50 (NCI-H1703 cells; [3]) [nM] | IC50 (GLS1) [nM] | IC50 [1] [nM] | IC50 (GLS1; [4]) [nM] | IC50 (NCI-H1703 cells; NCI-H1703 cells, 5 days incubation, Sytox Green; read-out: Assay c) Prolif Mean IC50) [nM]
CN(C)[C@@H](C(=O)Nc1nnc(N[C@@H]2CCN(c3cccnn3)C2)s1)c1ccccc1 (single isomer, unassigned) [Example 1(b)] | 54.7 |  |  |  |  | 
CN(C)[C@@H](C(=O)Nc1nnc(N[C@@H]2CCN(c3cccnn3)C2)s1)c1ccc(F)cc1 (single isomer, unassigned) [Example 2(b)] | 97.9 |  |  |  |  | 
CN(C)[C@@H](C(=O)Nc1nnc(N[C@@H]2CCN(c3cccnn3)C2)s1)c1cccc(OC(F)(F)F)c1 (single isomer, unassigned) [Example 4(b)] |  | 2.52 | 522 | 1.91 |  | 
O=C(Nc1nnc(N[C@@H]2CCN(c3cccnn3)C2)s1)[C@@H](c1cccc(OC(F)F)c1)N1CCC1 (single isomer, unassigned) [Example 5(b)] | 13.2 |  |  |  |  | 
COc1cccc([C@H](C(=O)Nc2nnc(N[C@@H]3CCN(c4cccnn4)C3)s2)N2CCC2)c1 (single isomer, unassigned) [Example 6(b)] |  | 80.8 | 944 | 29.7 |  | 
O=C(Nc1nnc(N[C@@H]2CCN(c3cccnn3)C2)s1)[C@@H](c1ccc(F)c(OC(F)(F)F)c1)N1CCC1 (single isomer, unassigned) [Example 11(b)] |  | 30.1 | 132 | 1.77 |  | 
CN(C)[C@H](C(=O)Nc1nnc(N[C@@H]2CCN(c3cccnn3)C2)s1)c1ccccc1 [Example 1(a), (2S)-2-(Dimethylamino)-2-phenyl-N-[5-[[(3R)-1-pyridazin-3-ylpyrrolidin-3-yl]amino]-1,3,4-thiadiazol-2-yl]acetamide] | 68.6 |  |  |  |  | 
CN(C)[C@H](C(=O)Nc1nnc(N[C@@H]2CCN(c3cccnn3)C2)s1)c1ccc(F)cc1 [Example 2(a), (2S)-2-(dimethylamino)-2-(4-fluorophenyl)-N-[5-[[(3R)-1-pyridazin-3-ylpyrrolidin-3-yl]amino]-1,3,4-thiadiazol-2-yl]acetamide] | 89.6 |  |  |  |  | 
CN(C)[C@H](C(=O)Nc1nnc(N[C@@H]2CCN(c3cccnn3)C2)s1)c1cccc(OC(F)F)c1 [Example 3(a), (2S)-2-[3-(difluoromethoxy)phenyl]-2-(dimethylamino)-N-[5-[[(3R)-1-pyridazin-3-ylpyrrolidin-3-yl]amino]-1,3,4-thiadiazol-2-yl]acetamide] | 12.7 |  |  | 11.2 | 261 | 
CN(C)[C@@H](C(=O)Nc1nnc(N[C@@H]2CCN(c3cccnn3)C2)s1)c1cccc(OC(F)F)c1 [Example 3(b), (2R)-2-[3-(difluoromethoxy)phenyl]-2-(dimethylamino)-N-[5-[[(3R)-1-pyridazin-3-ylpyrrolidin-3-yl]amino]-1,3,4-thiadiazol-2-yl]acetamide] | 8.25 |  | 52.4 | 0.295 |  | 
CN(C)[C@H](C(=O)Nc1nnc(N[C@@H]2CCN(c3cccnn3)C2)s1)c1cccc(OC(F)(F)F)c1 [Example 4(a), (2S)-2-(dimethylamino)-N-[5-[[(3R)-1-pyridazin-3-ylpyrrolidin-3-yl]amino]-1,3,4-thiadiazol-2-yl]-2-[3-(trifluoromethoxy)phenyl]acetamide] |  |  |  | 0.405 | 56.4 | 8.41
O=C(Nc1nnc(N[C@@H]2CCN(c3cccnn3)C2)s1)[C@H](c1cccc(OC(F)F)c1)N1CCC1 [Example 5(a), (2S)-2-(azetidin-1-yl)-2-[3-(difluoromethoxy)phenyl]-N-[5-[[(3R)-1-pyridazin-3-ylpyrrolidin-3-yl]amino]-1,3,4-thiadiazol-2-yl]acetamide] | 29.3 |  |  |  |  | 
COc1cccc([C@@H](C(=O)Nc2nnc(N[C@@H]3CCN(c4cccnn4)C3)s2)N2CCC2)c1 [Example 6(a), (2S)-2-(azetidin-1-yl)-2-(3-methoxyphenyl)-N-[5-[[(3R)-1-pyridazin-3-ylpyrrolidin-3-yl]amino]-1,3,4-thiadiazol-2-yl]acetamide] |  | 29.3 |  | 22 | 981 | 
O=C(Nc1nnc(N[C@@H]2CCN(c3cccnn3)C2)s1)[C@H](c1cccc(OC(F)(F)F)c1)N1CCC1 [Example 7(a), (2S)-2-(azetidin-1-yl)-N-[5-[[(3R)-1-pyridazin-3-ylpyrrolidin-3-yl]amino]-1,3,4-thiadiazol-2-yl]-2-[3-(trifluoromethoxy)phenyl]acetamide] | 6.24 |  |  | 8.61 | 1330 | 
O=C(Nc1nnc(N[C@@H]2CCN(c3cccnn3)C2)s1)[C@@H](c1cccc(OC(F)(F)F)c1)N1CCC1 [Example 7(b), (2R)-2-(azetidin-1-yl)-N-[5-[[(3R)-1-pyridazin-3-ylpyrrolidin-3-yl]amino]-1,3,4-thiadiazol-2-yl]-2-[3-(trifluoromethoxy)phenyl]acetamide] | 2.45 |  | 102 | 0.985 |  | 
CN1CCc2ccccc2[C@H]1C(=O)Nc1nnc(N[C@@H]2CCN(c3cccnn3)C2)s1 [Example 8(a), (1S)-2-methyl-N-[5-[[(3R)-1-pyridazin-3-ylpyrrolidin-3-yl]amino]-1,3,4-thiadiazol-2-yl]-3,4-dihydro-1H-isoquinoline-1-carboxamide] | 8.81 |  |  | 1.91 | 53 | 
CN1CCc2ccccc2[C@@H]1C(=O)Nc1nnc(N[C@@H]2CCN(c3cccnn3)C2)s1 [Example 8(b), (1R)-2-methyl-N-[5-[[(3R)-1-pyridazin-3-ylpyrrolidin-3-yl]amino]-1,3,4-thiadiazol-2-yl]-3,4-dihydro-1H-isoquinoline-1-carboxamide] | 85.1 |  | 194 | 20.9 |  | 
Cc1ccc([C@@H](C(=O)Nc2nnc(N[C@@H]3CCN(c4cccnn4)C3)s2)N(C)C)cc1 [Example 9, (2S)-2-(dimethylamino)-2-(4-methylphenyl)-N-[5-[[(3R)-1-pyridazin-3-ylpyrrolidin-3-yl]amino]-1,3,4-thiadiazol-2-yl]acetamide] | 44.8 |  |  | 2.81 | 132 | 
Cc1cccc([C@@H](C(=O)Nc2nnc(N[C@@H]3CCN(c4cccnn4)C3)s2)N(C)C)c1 [Example 10, (2S)-2-(dimethylamino)-2-(3-methylphenyl)-N-[5-[[(3R)-1-pyridazin-3-ylpyrrolidin-3-yl]amino]-1,3,4-thiadiazol-2-yl]acetamide] | 21.2 |  |  | 2.12 | 59.2 | 
O=C(Nc1nnc(N[C@@H]2CCN(c3cccnn3)C2)s1)[C@H](c1ccc(F)c(OC(F)(F)F)c1)N1CCC1 [Example 11(a), (2S)-2-(Azetidin-1-yl)-2-[4-fluoro-3-(trifluoromethoxy)phenyl]-N-[5-[[(3R)-1-pyridazin-3-ylpyrrolidin-3-yl]amino]-1,3,4-thiadiazol-2-yl]acetamide] |  | 19.1 |  | 30.8 | 952 | 
O=C(Nc1nnc(N[C@@H]2CCN(c3ccc(F)nn3)C2)s1)[C@H](c1cccc(OC(F)(F)F)c1)N1CCC1 [Example 12(a), (2S)-2-(azetidin-1-yl)-N-[5-[[(3R)-1-(6-fluoropyridazin-3-yl)pyrrolidin-3-yl]amino]-1,3,4-thiadiazol-2-yl]-2-[3-(trifluoromethoxy)phenyl]acetamide] | 11.6 |  |  | 15.3 | 2510 | 

Source: patent US10040789B2, “1,3,4-thiadiazole compounds and their use in treating cancer” (AstraZeneca AB, priority 2015, dated 2018)
